According to patent US20120202756A1, “USE OF PRODRUGS TO AVOID GI MEDIATED ADVERSE EVENTS” (priority 2009, published 2012):
Converted amounts (≈) assume the structure as drawn. “And” between values parts separate entries of the source, which are not always exact repeats. Equal entries are not always repeated. Where two headings read alike, the source gives them in different places.

How the values were obtained:
[1] = system: Bacteroides thetaiotamicron; assay: MIC agar dilution; assay type: cell-based
[2] = system: Bifidobacterium adolescentis; assay: MIC agar dilution; assay type: cell-based; conditions: NCTC11814
Bifidobacterium dentium = assay: MIC agar dilution; assay type: cell-based; conditions: NCTC11816
Bifidobacterium longum = assay: MIC agar dilution; assay type: cell-based; conditions: NCTC11818
Clostridium bifermentans = assay: MIC agar dilution; assay type: cell-based; conditions: Paraclostridium bifermentans, ATCC638
Clostridium difficile = assay: MIC agar dilution; assay type: cell-based; conditions: Clostridioides difficile
Clostridium novyi = assay: MIC agar dilution; assay type: cell-based; conditions: ATCC19402
Clostridium perfringens = assay: microbe, parasite or virus in culture; assay type: cell-based
Clostridium sordellii = assay: MIC agar dilution; assay type: cell-based; conditions: Paraclostridium sordellii, NCTC13356; NCTC 13356
Clostridium sporogenes = assay: MIC agar dilution; assay type: cell-based; conditions: ATCC3584, ATCC 3584
Eggerthella lenta = assay: MIC agar dilution; assay type: cell-based; conditions: ATCC43055, ATCC 43055
[3] = system: Fusobacterium necrophorum; assay: MIC agar dilution; assay type: cell-based; conditions: clinical isolate
[4] = system: Peptostreptococcus anaerobius; assay: MIC agar dilution; assay type: cell-based; conditions: NCTC11460
[5] = system: Peptostreptococcus magnus; assay: MIC agar dilution; assay type: cell-based; conditions: Finegoldia magna; clinical isolate
[6] = system: Peptostreptococcus micros; assay: MIC agar dilution; assay type: cell-based; conditions: Parvimonas micra; clinical isolate
[7] = system: Porphyromonas assacharolyticus; assay: MIC agar dilution; assay type: cell-based; conditions: clinical isolate
[8] = system: Porphyromonas endodontalis; assay: MIC agar dilution; assay type: cell-based; conditions: clinical isolate
Prevotella bivia = assay: MIC agar dilution; assay type: cell-based; conditions: ATCC29303, ATCC 29303
Prevotella denticola = assay: MIC agar dilution; assay type: cell-based; conditions: clinical isolate
Veillonella atypical = assay: MIC agar dilution; assay type: cell-based; conditions: NCTC11830
Veillonella parvula = assay: MIC agar dilution; assay type: cell-based; conditions: NCTC11810
Veillonella spp. = assay: MIC agar dilution; assay type: cell-based; conditions: clinical isolate
[9] = Bioavailability of metronidazole from its prodrugs in the rat; conditions: for Tmax: male, Sprague Dawley, rat, in vivo, po; for T>50% Cmax: period plasma metronidazole at or above 50% of Cmax, oral 1 mg equivalents/kg
Description: In order to confirm successful absorption and subsequent hydrolysis of these metronidazole prodrugs, a comparative bioavailability study was undertaken in the rat Methods—Three groups of five male Sprague Dawley rats were orally dosed with either metronidazole itself or its succinyl valine or glutaryl para-amino benzoic acid ester prodrugs. Serial tail vein blood samples were subsequently collected via an indwelling cannuala into EDTA tubes containing a stabilising cocktail (including 6 mg/mL NaF) to prevent post collection enzymic hydrolysis of the prodrug. Separated plasma samples were subjected to bioanalysis for both the prodrugs and metronidazole itself using a qualified LC/MS-MS bioanalytical method.

Bacteroides fragilis = assay: MIC agar dilution
Propionibacterium acnes = assay: MIC agar dilution
Campylobacter coli = assay: MIC agar dilution
Campylobacter jejuni = assay: MIC agar dilution
Helicobacter pylori = assay: MIC agar dilution
[10] = NCTC13366, NCTC 13366 - NAP1/027
[11] = antibiotic-susceptible clinical isolate
[12] = clinical isolate MIC clindamycin 0.5 mg/L
[13] = clinical isolate (first listed, r83)
[14] = clinical isolate (second listed, r85)

SMILES: Cc1ncc([N+](=O)[O-])n1CCOC(=O)CCCC(=O)Nc1ccc(C(=O)O)cc1 [Metronidazole glutaryl PABA ester, Metronidazole-(glutaryl-PABA) ester]
- MIC ([1]; ATCC29741): > 64 µg/mL
- MIC ([1]; NCTC10582): > 64 µg/mL
- MIC [2]: > 64 µg/mL
- MIC (Bifidobacterium dentium): > 64 µg/mL
- MIC (Bifidobacterium longum): > 64 µg/mL
- MIC (Clostridium bifermentans): 64 µg/mL (≈ 158 µM)
- MIC (Clostridium difficile; ATCC700057, ATCC 700057): 8 µg/mL (≈ 19.8 µM)
- MIC (Clostridium difficile; [10]): 16 µg/mL (≈ 39.6 µM)
- MIC (Clostridium difficile; [11]): 8 µg/mL (≈ 19.8 µM)
- MIC (Clostridium novyi): 32 µg/mL (≈ 79.1 µM)
- MIC (Clostridium perfringens): > 64 µg/mL
- MIC (Clostridium perfringens; ATCC13124): > 64 µg/mL
- MIC (Clostridium sordellii): 64 µg/mL (≈ 158 µM)
- MIC (Clostridium sporogenes): 8 µg/mL (≈ 19.8 µM)
- MIC (Eggerthella lenta): 32 µg/mL (≈ 79.1 µM)
- MIC [3]: 8 µg/mL (≈ 19.8 µM)
- MIC [4]: 16 µg/mL (≈ 39.6 µM)
- MIC [5]: 16 µg/mL (≈ 39.6 µM)
- MIC [6]: 8 µg/mL (≈ 19.8 µM)
- MIC [7]: 8 µg/mL (≈ 19.8 µM)
- MIC [8]: 4 µg/mL (≈ 9.89 µM)
- MIC (Prevotella bivia): 32 µg/mL (≈ 79.1 µM)
- MIC (Prevotella denticola): 64 µg/mL (≈ 158 µM)
- MIC (Veillonella atypical): > 64 µg/mL
- MIC (Veillonella parvula): > 64 µg/mL
- MIC (Veillonella spp.): > 64 µg/mL
- Tmax [9]: 2.0 h
- MIC (Bacteroides fragilis): > 64 µg/mL
- MIC (Bacteroides fragilis; ATCC25285): > 64 µg/mL
- MIC (Propionibacterium acnes; Cutibacterium acnes): > 64 µg/mL
- MIC (Propionibacterium acnes; [12]): >64 µg/mL
- MIC (Campylobacter coli): > 64 µg/mL
- MIC (Campylobacter coli; ATCC33559): 64 µg/mL (≈ 158 µM)
- MIC (Campylobacter jejuni): > 64 µg/mL
- MIC (Campylobacter jejuni; ATCC33560): 64 µg/mL (≈ 158 µM)
- MIC (Helicobacter pylori; [13]): 32 µg/mL (≈ 79.1 µM)
- MIC (Helicobacter pylori; [14]): 16 µg/mL (≈ 39.6 µM)

SMILES: Cc1ncc([N+](=O)[O-])n1CCOC(=O)CCC(=O)N[C@H](C(=O)O)C(C)C [Metronidazole succinyl valine ester, Metronidazole-[succinyl-(S)-valine]ester]
- MIC ([1]; ATCC29741): > 64 µg/mL
- MIC ([1]; NCTC10582): > 64 µg/mL
- MIC [2]: > 64 µg/mL
- MIC (Bifidobacterium dentium): > 64 µg/mL
- MIC (Bifidobacterium longum): > 64 µg/mL
- MIC (Clostridium bifermentans): > 64 µg/mL
- MIC (Clostridium difficile; ATCC700057, ATCC 700057): 32 µg/mL (≈ 86.4 µM)
- MIC (Clostridium difficile; [10]): 64 µg/mL (≈ 173 µM)
- MIC (Clostridium difficile; [11]): 32 µg/mL (≈ 86.4 µM)
- MIC (Clostridium novyi): > 64 µg/mL
- MIC (Clostridium perfringens): > 64 µg/mL
- MIC (Clostridium perfringens; ATCC13124): > 64 µg/mL
- MIC (Clostridium sordellii): > 64 µg/mL
- MIC (Clostridium sporogenes): 32 µg/mL (≈ 86.4 µM)
- MIC (Eggerthella lenta): > 64 µg/mL
- MIC [3]: 32 µg/mL (≈ 86.4 µM)
- MIC [4]: 32 µg/mL (≈ 86.4 µM)
- MIC [5]: 64 µg/mL (≈ 173 µM)
- MIC [6]: 64 µg/mL (≈ 173 µM)
- MIC [7]: > 64 µg/mL
- MIC [8]: > 64 µg/mL
- MIC (Prevotella bivia): > 64 µg/mL
- MIC (Prevotella denticola): > 64 µg/mL
- MIC (Veillonella atypical): > 64 µg/mL
- MIC (Veillonella parvula): > 64 µg/mL
- MIC (Veillonella spp.): > 64 µg/mL
- Tmax [9]: 2.0 h
- MIC (Bacteroides fragilis): > 64 µg/mL
- MIC (Bacteroides fragilis; ATCC25285): > 64 µg/mL
- MIC (Propionibacterium acnes; Cutibacterium acnes): > 64 µg/mL
- MIC (Propionibacterium acnes; [12]): >64 µg/mL
- MIC (Campylobacter coli): > 64 µg/mL
- MIC (Campylobacter coli; ATCC33559): > 64 µg/mL
- MIC (Campylobacter jejuni): > 64 µg/mL
- MIC (Campylobacter jejuni; ATCC33560): > 64 µg/mL
- MIC (Helicobacter pylori; [13]): 64 µg/mL (≈ 173 µM)
- MIC (Helicobacter pylori; [14]): 64 µg/mL (≈ 173 µM)

SMILES: Cc1ncc([N+](=O)[O-])n1CCO [Metronidazole, metronidazole, reference compound]
- MIC ([1]; ATCC29741): 1 µg/mL (≈ 5.84 µM)
- MIC ([1]; NCTC10582): 1 µg/mL (≈ 5.84 µM)
- MIC [2]: 32 µg/mL (≈ 187 µM)
- MIC (Bifidobacterium dentium): 16 µg/mL (≈ 93.5 µM)
- MIC (Bifidobacterium longum): 8 µg/mL (≈ 46.7 µM)
- MIC (Clostridium bifermentans): 0.25 µg/mL (≈ 1.46 µM)
- MIC (Clostridium difficile; ATCC700057, ATCC 700057): 0.12 µg/mL (≈ 0.701 µM)
- MIC (Clostridium difficile; [10]): 0.12 µg/mL (≈ 0.701 µM)
- MIC (Clostridium difficile; [11]): 0.06 µg/mL (≈ 0.351 µM)
- MIC (Clostridium novyi): 0.5 µg/mL (≈ 2.92 µM)
- MIC (Clostridium perfringens): 2 µg/mL (≈ 11.7 µM)
- MIC (Clostridium perfringens; ATCC13124): 1 µg/mL (≈ 5.84 µM)
- MIC (Clostridium sordellii): 0.5 µg/mL (≈ 2.92 µM)
- MIC (Clostridium sporogenes): 0.06 µg/mL (≈ 0.351 µM)
- MIC (Eggerthella lenta): 0.5 µg/mL (≈ 2.92 µM)
- MIC [3]: 0.12 µg/mL (≈ 0.701 µM)
- MIC [4]: 0.12 µg/mL (≈ 0.701 µM)
- MIC [5]: 0.25 µg/mL (≈ 1.46 µM)
- MIC [6]: 0.25 µg/mL (≈ 1.46 µM)
- MIC [7]: 0.5 µg/mL (≈ 2.92 µM)
- MIC [8]: 1 µg/mL (≈ 5.84 µM)
- MIC (Prevotella bivia): 1 µg/mL (≈ 5.84 µM)
- MIC (Prevotella denticola): 0.5 µg/mL (≈ 2.92 µM)
- MIC (Veillonella atypical): 8 µg/mL (≈ 46.7 µM)
- MIC (Veillonella parvula): 4 µg/mL (≈ 23.4 µM)
- MIC (Veillonella spp.): 2 µg/mL (≈ 11.7 µM)
- time of peak plasma levels after dosing ([9]; oral, male rats): ≤ 15 min
- T>50% Cmax ([9]; male rats, individual animals): 1.5 h and 1.75 h and 2.75 h and 3.0 h and 2.5 h
- T>50% Cmax ([9]; male rats, mean): 2.3 ± 0.65 h and 2.3 h
- MIC (Bacteroides fragilis): 0.5 µg/mL (≈ 2.92 µM)
- MIC (Bacteroides fragilis; ATCC25285): 0.5 µg/mL (≈ 2.92 µM)
- MIC (Propionibacterium acnes; Cutibacterium acnes): > 64 µg/mL
- MIC (Propionibacterium acnes; [12]): >64 µg/mL
- MIC (Campylobacter coli): 1 µg/mL (≈ 5.84 µM)
- MIC (Campylobacter coli; ATCC33559): 0.5 µg/mL (≈ 2.92 µM)
- MIC (Campylobacter jejuni): 8 µg/mL (≈ 46.7 µM)
- MIC (Campylobacter jejuni; ATCC33560): 1 µg/mL (≈ 5.84 µM)
- MIC (Helicobacter pylori; [13]): 2 µg/mL (≈ 11.7 µM)
- MIC (Helicobacter pylori; [14]): 2 µg/mL (≈ 11.7 µM)
